Laboratory results: PMC3634983 (Clinical Drug Investigation, 2013)
Where two headings read alike, the source gives them in different places.

Tests used:
[1] = following an oral dose without food; cited from earlier work
healthy subjects [2] = test: Thorough QT study: ECG profiles; assay type: in vivo, human; conditions: for ∆∆HR / ∆∆QT / ∆∆QTcI: mean (90 % CI); for Adjusted mean (SE) ∆ QTcI: time-matched change from baseline between 1.5 and 3 h post-dose, n=40
healthy subjects [3] = conditions: after a single dose; cited from earlier work
healthy subjects [4] = test: Safety and tolerability evaluation; assay type: in vivo, human
[5] = assay type: in vivo, human; conditions: for detectability in plasma: after single oral doses of dabigatran etexilate; for AUC(0-inf) / Cmax / Tmax: human, plasma, po
[6] = tested on: isolated guinea pig papillary muscles; conditions: concentrations up to 10 μmol/L; cited from earlier work
anaesthetised pigs = conditions: up to 3 mg/kg intravenously; cited from earlier work
[7] = cited from earlier work
healthy subjects [8] = assay type: in vivo, human
[9] = tested on: hERG-mediated potassium current; conditions: human embryonic kidney cells; cited from earlier work
[10] = tested on: activated partial thromboplastin time; conditions: 600 mg dose; achieved at 2–4 h post-dose; pilot study; cited from earlier work
[11] = cited from earlier work; remark: listed apart in the source
[12] = moxifloxacin 400 mg, 1:00 h post-dose
[13] = moxifloxacin 400 mg, 1:30 h post-dose
[14] = moxifloxacin 400 mg, 2:00 h post-dose
[15] = moxifloxacin 400 mg, 3:00 h post-dose
[16] = moxifloxacin 400 mg, 6:00 h post-dose
[17] = at gMean Cmax of dabigatran etexilate 150 mg dose
[18] = at gMean Cmax of dabigatran etexilate 600 mg dose
[19] = exposure-response analysis for placebo-corrected CfB of HR, post hoc
[20] = exposure-response analysis for placebo-corrected CfB of QTcI, post hoc
[21] = dabigatran etexilate 150 mg, 1:00 h post-dose
[22] = dabigatran etexilate 150 mg, 1:30 h post-dose
[23] = dabigatran etexilate 150 mg, 2:00 h post-dose
[24] = dabigatran etexilate 150 mg, 3:00 h post-dose
[25] = dabigatran etexilate 150 mg, 6:00 h post-dose
[26] = dabigatran etexilate 150 mg, 12:00 h post-dose
[27] = dabigatran etexilate 150 mg, 24:00 h post-dose
[28] = dabigatran etexilate 150 mg, between 1 and 6 h post-dose
[29] = dabigatran etexilate 600 mg, 1:00 h post-dose
[30] = dabigatran etexilate 600 mg, 1:30 h post-dose
[31] = dabigatran etexilate 600 mg, 2:00 h post-dose
[32] = dabigatran etexilate 600 mg, 3:00 h post-dose
[33] = dabigatran etexilate 600 mg, 6:00 h post-dose
[34] = dabigatran etexilate 600 mg, 12:00 h post-dose
[35] = dabigatran etexilate 600 mg, 24:00 h post-dose
[36] = dabigatran etexilate 600 mg, between 1 and 6 h post-dose

SMILES: COc1c(N2C[C@@H]3CCCN[C@@H]3C2)c(F)cc2c(=O)c(C(=O)O)cn(C3CC3)c12 [Moxifloxacin, moxifloxacin]
- time of peak plasma concentration [1]: 1 to 4 h
- ∆∆HR (healthy subjects [2]; [12]): 2.4 (0.9 to 3.8) bpm
- ∆∆QT (healthy subjects [2]; [12]): 8.3 (4.7 to 11.9) ms
- ∆∆QTcI (healthy subjects [2]; [12]): 11.1 (8.4 to 13.8) ms
- ∆∆HR (healthy subjects [2]; [13]): 1.3 (0.1 to 2.5) bpm
- ∆∆QT (healthy subjects [2]; [13]): 11.9 (8.3 to 15.5) ms
- ∆∆QTcI (healthy subjects [2]; [13]): 12.8 (10.2 to 15.6) ms
- ∆∆HR (healthy subjects [2]; [14]): 0.4 (−1.0 to 1.7) bpm
- ∆∆QT (healthy subjects [2]; [14]): 13.6 (10.4 to 16.9) ms
- ∆∆QTcI (healthy subjects [2]; [14]): 14.1 (11.7 to 16.5) ms
- ∆∆QTcI (healthy subjects [2]; moxifloxacin 400 mg, 2:00 h post-dose, listed as moxifloxacin): 14.1 ms
- ∆∆HR (healthy subjects [2]; [15]): 2.7 (1.1 to 4.4) bpm
- ∆∆QT (healthy subjects [2]; [15]): 10.3 (6.9 to 13.8) ms
- ∆∆QTcI (healthy subjects [2]; [15]): 14.1 (11.4 to 16.7) ms
- ∆∆HR (healthy subjects [2]; [16]): 1.5 (0.1 to 2.8) bpm
- ∆∆QT (healthy subjects [2]; [16]): 9.2 (6.1 to 12.2) ms
- ∆∆QTcI (healthy subjects [2]; [16]): 10.4 (8.0 to 12.8) ms
- Mean (SE) [90 % CI] ∆∆ QTcI (healthy subjects [2]; moxifloxacin 400 mg, placebo-corrected change from baseline between 1.5 and 3 h post-dose): 14.2 ms
- QT-interval prolongation (healthy subjects [3]): 8 to 14 ms
- Global tolerability (good / satisfactory / not satisfactory / bad) (healthy subjects [4]; investigator-assessed): one subject who responded ‘not satisfactory’
- subjects with adverse events within the treatment period (healthy subjects [4]; moxifloxacin 400 mg, one subject of 40 ('feeling dazed')): 2.5%

SMILES: CCOC(=O)CCN(C(=O)c1ccc2c(c1)nc(CNc1ccc(C(=N)N)cc1)n2C)c1ccccn1 [BIBR951]
- detectability in plasma [5]: only detectable between 0.5 and 3 h post-dosing and then only in very low concentrations

SMILES: CCCCCCOC(=O)NC(=N)c1ccc(NCc2nc3cc(C(=O)N(CCC(=O)O)c4ccccn4)ccc3n2C)cc1 [BIBR1087]
- detectability in plasma [5]: only detectable between 0.5 and 3 h post-dosing and then only in very low concentrations

SMILES: [H]/N=C(/N)c1ccc(NCc2nc3cc(C(=O)N(CCC(=O)O)c4ccccn4)ccc3n2C)cc1 [dabigatran]
- changes in QT interval [6]: no noteworthy changes in QT interval
- influence on cardiovascular parameters (anaesthetised pigs): no influence on cardiovascular parameters
- half-life [7]: 12 to 17 h
- AUC(0-inf) ([5]; 150 mg): 540 ng·h/mL
- Cmax ([5]; 150 mg): 71.4 ng/mL
- Tmax ([5]; 150 mg): 2.03 h
- AUC(0-inf) ([5]; 600 mg): 2230 ng·h/mL
- Cmax ([5]; 600 mg): 281 ng/mL
- Tmax ([5]; 600 mg): 3 h
- Predicted value of ∆∆HR at Cmax (90 % CI) (healthy subjects [8]; [17]): 0.3 (−0.4 to 1.0) bpm
- Predicted value of ∆∆QTcI at Cmax (90 % CI) (healthy subjects [8]; [17]): 0.4 (−0.9 to 1.7) ms
- Predicted value of ∆∆HR at Cmax (90 % CI) (healthy subjects [8]; [18]): 0.4 (−0.9 to 1.7) bpm
- Predicted value of ∆∆QTcI at Cmax (90 % CI) (healthy subjects [8]; [18]): 0.5 (−1.5 to 2.6) ms
- PK-∆∆HR intercept (healthy subjects [8]; [19]): 0.26 bpm
- PK-∆∆HR slope (healthy subjects [8]; [19]): 0.0005 bpm/[ng/mL]
- PK-∆∆QTcI intercept (healthy subjects [8]; [20]): 0.34 ms
- PK-∆∆QTcI slope (healthy subjects [8]; [20]): ~0 ms/[ng/mL]
- PK-∆∆QTcI slope (healthy subjects [8]; exposure-response analysis for placebo-corrected CfB of QTcI, post hoc, listed as Free non-conjugated dabigatran): 0.0006 ms/[ng/mL]
- 90 % CI of the predicted value of placebo-corrected CfB of QTcI at gMean Cmax (healthy subjects [8]; total and free dabigatran, each dose (all four analyses)): below 3 ms
- effect on hERG-mediated potassium current [9]: did not modify the hERG-mediated potassium current

SMILES: CCCCCCOC(=O)NC(=N)c1ccc(NCc2nc3cc(C(=O)N(CCC(=O)OCC)c4ccccn4)ccc3n2C)cc1 [Dabigatran etexilate]
- detectability in plasma [5]: only detectable between 0.5 and 3 h post-dosing and then only in very low concentrations
- Mean Cmax with 600 mg relative to 150 mg dose ([5]; dabigatran etexilate 600 mg versus 150 mg): approximately fourfold higher
- Cmax after 600 mg relative to steady-state concentration in patients ([5]; versus patients receiving dabigatran etexilate 150 mg once daily): 4 times
- Cmax after 600 mg relative to steady-state concentration in patients ([5]; versus patients receiving dabigatran etexilate 150 mg twice daily): 2.6 times
- increase in activated partial thromboplastin time [10]: two- to threefold increase
- upper bound of the two-sided 90 % CI of the largest time-matched mean difference from placebo (QTcI) (healthy subjects [2]; both dose levels (150 mg and 600 mg), 0.5 to 24 h post-dose): 3 to 4 ms
- upper limit of 95 % CI, secondary endpoints (QTcI versus placebo) (healthy subjects [2]; both doses (150 mg and 600 mg)): below 4 ms
- upper limit of the 95 % CI, primary endpoint (QTcI versus placebo) (healthy subjects [2]; both doses (150 mg and 600 mg)): approximately 1.5 ms
- Adjusted mean (SE) ∆ QTcI (healthy subjects [2]; dabigatran etexilate 150 mg single oral dose): −4.9 (1.1) ms
- ∆∆HR (healthy subjects [2]; [21]): 0.7 (−0.5 to 1.8) bpm
- ∆∆QTcI (healthy subjects [2]; [21]): −0.1 (−2.5 to 2.2) ms
- ∆∆HR (healthy subjects [2]; [22]): −0.3 (−1.4 to 0.8) bpm
- ∆∆QT (healthy subjects [2]; [22]): −0.6 (−3.3 to 2.1) ms
- ∆∆QTcI (healthy subjects [2]; [22]): −1.4 (−3.2 to 0.4) ms
- ∆∆HR (healthy subjects [2]; [23]): −0.3 (−1.5 to 0.8) bpm
- ∆∆QT (healthy subjects [2]; [23]): −0.2 (−2.9 to 2.6) ms
- ∆∆QTcI (healthy subjects [2]; [23]): −0.7 (−2.9 to 1.6) ms
- ∆∆QT (healthy subjects [2]; [24]): −1.9 (−4.9 to 1.0) ms
- ∆∆QTcI (healthy subjects [2]; [24]): −1.1 (−3.3 to 1.2) ms
- ∆∆QT (healthy subjects [2]; [25]): −0.5 (−3.8 to 2.7) ms
- ∆∆QTcI (healthy subjects [2]; [25]): −0.4 (−3.0 to 2.2) ms
- ∆∆HR (healthy subjects [2]; [26]): −0.4 (−1.7 to 0.9) bpm
- ∆∆QT (healthy subjects [2]; [26]): 1.3 (−1.8 to 4.5) ms
- ∆∆QTcI (healthy subjects [2]; [26]): 0.9 (−1.7 to 3.5) ms
- ∆∆HR (healthy subjects [2]; [27]): −0.1 (−1.1 to 1.0) bpm
- ∆∆QT (healthy subjects [2]; [27]): −0.2 (−2.8 to 2.5) ms
- ∆∆QTcI (healthy subjects [2]; [27]): −0.1 (−1.9 to 1.7) ms
- mean time-matched CfB of QTcI (healthy subjects [2]; [28]): -5.3 ms
- upper bound of the two-sided 90 % CI of placebo-adjusted CfB of QTcI (healthy subjects [2]; [28]): 1.5 ms
- upper bound of the two-sided 90 % CI of placebo-adjusted CfB of QTcI (healthy subjects [2]; dabigatran etexilate 150 mg, between 1.5 and 3 h post-dose): 1.4 ms
- Adjusted mean (SE) ∆ QTcI (healthy subjects [2]; dabigatran etexilate 600 mg single oral dose): −5.0 (1.1) ms
- ∆∆HR (healthy subjects [2]; [29]): 0.5 (−0.6 to 1.6) bpm
- ∆∆QT (healthy subjects [2]; [29]): −1.8 (−5.2 to 1.5) ms
- ∆∆QTcI (healthy subjects [2]; [29]): −1.5 (−3.8 to 0.9) ms
- ∆∆HR (healthy subjects [2]; [30]): −0.3 (−1.5 to 0.8) bpm
- ∆∆QT (healthy subjects [2]; [30]): −0.6 (−3.3 to 2.1) ms
- ∆∆QTcI (healthy subjects [2]; [30]): −1.7 (−3.5 to 0.2) ms
- ∆∆HR (healthy subjects [2]; [31]): −1.1 (−2.2 to 0.1) bpm
- ∆∆QT (healthy subjects [2]; [31]): −0.9 (−3.7 to 1.8) ms
- ∆∆QTcI (healthy subjects [2]; [31]): −2.6 (−4.8 to −0.4) ms
- ∆∆HR (healthy subjects [2]; [32]): 1.5 (−0.1 to 2.9) bpm
- ∆∆QT (healthy subjects [2]; [32]): −2.9 (−5.8 to 0.1) ms
- ∆∆QTcI (healthy subjects [2]; [32]): −1.1 (−3.3 to 1.1) ms
- ∆∆HR (healthy subjects [2]; [33]): 0.6 (−0.7 to 1.9) bpm
- ∆∆QT (healthy subjects [2]; [33]): −1.1 (−4.3 to 2.2) ms
- ∆∆QTcI (healthy subjects [2]; [33]): −0.8 (−3.4 to 1.8) ms
- ∆∆HR (healthy subjects [2]; [34]): −0.2 (−1.5 to 1.1) bpm
- ∆∆QT (healthy subjects [2]; [34]): 1.0 (−2.1 to 4.2) ms
- ∆∆QTcI (healthy subjects [2]; [34]): 0.4 (−2.2 to 3.0) ms
- ∆∆HR (healthy subjects [2]; [35]): 1.1 (0.0 to 2.2) bpm
- ∆∆QTcI (healthy subjects [2]; [35]): −1.6 (−3.4 to 0.2) ms
- mean time-matched CfB of QTcI (healthy subjects [2]; [36]): -5.4 ms
- upper bound of the two-sided 90 % CI of placebo-adjusted CfB of QTcI (healthy subjects [2]; [36]): 1.4 ms
- upper bound of the two-sided 90 % CI of placebo-adjusted CfB of QTcI (healthy subjects [2]; dabigatran etexilate 600 mg, between 1.5 and 3 h post-dose): 1.3 ms
- prolongation of QTcN, QTcF, uncorrected QT and QTcB (healthy subjects [2]; either dabigatran etexilate dose): none of these parameters was prolonged
- prolongation of the QT interval (healthy subjects [2]; overall study result): ≤ 5 ms
- QT prolongation or arrhythmogenic effects (conclusion) (healthy subjects [2]; therapeutic (150 mg) and supratherapeutic (600 mg) doses): not associated with QT prolongation or arrhythmogenic effects
- steady-state concentration ([11]; patients receiving dabigatran etexilate 150 mg once daily): 99.2 ng/mL
- steady-state concentration ([11]; patients receiving dabigatran etexilate 150 mg twice daily): 146 ng/mL
- subjects with adverse events within the treatment period (healthy subjects [4]; dabigatran etexilate 150 mg, three subjects of 40): 7.5%
- subjects with adverse events within the treatment period (healthy subjects [4]; dabigatran etexilate 600 mg, four subjects of 40): 10%
- tolerability (healthy subjects [4]; single oral doses of 150 mg and 600 mg): well tolerated
